Patent publication US8148391B2 (Cephalon, Inc., priority 2006, dated 2012)
Read-outs that look alike come from different tables or passages of the source. Values belong to the compound of their own block, whether it stands above or below them.

Columns and labels:
[1] = target: T1, baculovirus-expressed ALK (Homo sapiens, UniProt Q9UM73); assay: ALK Kinase Assay (ELISA-type, time-resolved fluorescence); format: biochemical
T1 construct: host or cells: baculovirus expression system
Procedure, shortened: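 Plates coated with phospholipase C-γ substrate (10 μg/mL in TBS); reaction started with 30 ng/ml ALK and run 15 min at 37° C. Phosphorylated substrate detected with Eu-N1-labeled PT66 antibody. IC50 from sigmoidal variable-slope fit of percent inhibition vs log concentration.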

[2] = target: T2, c-Met (cytoplasmic domain) (Homo sapiens, UniProt P08581); assay: c-Met Kinase Assay (same methods as for ALK, with modifications); format: biochemical
T2 construct: 10 ng/mL c-Met (cytoplasmic domain, Invitrogen Corporation #PV3143); purchased Invitrogen Corporation PV3143
Procedure, shortened: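 Plates were coated with phospholipase C-γ substrate (10 μg/mL) in TBS, and the reaction was started with 10 ng/mL c-Met cytoplasmic domain and run 15 min at 37 °C. Phosphoproduct was detected with Eu-N1-labelled PT66 antibody. IC50 came from a variable-slope sigmoidal fit of percent inhibition vs log concentration.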

[3] = ALK kinase inhibition, 1 μM ATP (Km level), read-out: ALK Activity
[4] = c-Met kinase inhibition, 1 μM ATP (Km level), read-out: cMet Activity
[5] = 1 μM ATP (Km level), read-out: ALK Activity (ALK Kinase Inhibition, IC50)
[6] = 1 μM ATP (Km level), read-out: cMet Activity (c-Met Kinase Inhibition, IC50)
[7] = 1 μM ATP (Km level), 30 ng/ml ALK, 37° C., 15 minutes, read-out: ALK Activity (ALK kinase inhibition, IC50 class)
[8] = 1 μM ATP (Km level), 10 ng/mL c-Met, read-out: cMet Activity (c-Met kinase inhibition, IC50 class)
[9] = ALK kinase inhibition, 1 μM ATP, read-out: ALK Activity
[10] = c-Met kinase inhibition, 1 μM ATP, read-out: cMet Activity

T1 sequence (Q9UM73 19-1620): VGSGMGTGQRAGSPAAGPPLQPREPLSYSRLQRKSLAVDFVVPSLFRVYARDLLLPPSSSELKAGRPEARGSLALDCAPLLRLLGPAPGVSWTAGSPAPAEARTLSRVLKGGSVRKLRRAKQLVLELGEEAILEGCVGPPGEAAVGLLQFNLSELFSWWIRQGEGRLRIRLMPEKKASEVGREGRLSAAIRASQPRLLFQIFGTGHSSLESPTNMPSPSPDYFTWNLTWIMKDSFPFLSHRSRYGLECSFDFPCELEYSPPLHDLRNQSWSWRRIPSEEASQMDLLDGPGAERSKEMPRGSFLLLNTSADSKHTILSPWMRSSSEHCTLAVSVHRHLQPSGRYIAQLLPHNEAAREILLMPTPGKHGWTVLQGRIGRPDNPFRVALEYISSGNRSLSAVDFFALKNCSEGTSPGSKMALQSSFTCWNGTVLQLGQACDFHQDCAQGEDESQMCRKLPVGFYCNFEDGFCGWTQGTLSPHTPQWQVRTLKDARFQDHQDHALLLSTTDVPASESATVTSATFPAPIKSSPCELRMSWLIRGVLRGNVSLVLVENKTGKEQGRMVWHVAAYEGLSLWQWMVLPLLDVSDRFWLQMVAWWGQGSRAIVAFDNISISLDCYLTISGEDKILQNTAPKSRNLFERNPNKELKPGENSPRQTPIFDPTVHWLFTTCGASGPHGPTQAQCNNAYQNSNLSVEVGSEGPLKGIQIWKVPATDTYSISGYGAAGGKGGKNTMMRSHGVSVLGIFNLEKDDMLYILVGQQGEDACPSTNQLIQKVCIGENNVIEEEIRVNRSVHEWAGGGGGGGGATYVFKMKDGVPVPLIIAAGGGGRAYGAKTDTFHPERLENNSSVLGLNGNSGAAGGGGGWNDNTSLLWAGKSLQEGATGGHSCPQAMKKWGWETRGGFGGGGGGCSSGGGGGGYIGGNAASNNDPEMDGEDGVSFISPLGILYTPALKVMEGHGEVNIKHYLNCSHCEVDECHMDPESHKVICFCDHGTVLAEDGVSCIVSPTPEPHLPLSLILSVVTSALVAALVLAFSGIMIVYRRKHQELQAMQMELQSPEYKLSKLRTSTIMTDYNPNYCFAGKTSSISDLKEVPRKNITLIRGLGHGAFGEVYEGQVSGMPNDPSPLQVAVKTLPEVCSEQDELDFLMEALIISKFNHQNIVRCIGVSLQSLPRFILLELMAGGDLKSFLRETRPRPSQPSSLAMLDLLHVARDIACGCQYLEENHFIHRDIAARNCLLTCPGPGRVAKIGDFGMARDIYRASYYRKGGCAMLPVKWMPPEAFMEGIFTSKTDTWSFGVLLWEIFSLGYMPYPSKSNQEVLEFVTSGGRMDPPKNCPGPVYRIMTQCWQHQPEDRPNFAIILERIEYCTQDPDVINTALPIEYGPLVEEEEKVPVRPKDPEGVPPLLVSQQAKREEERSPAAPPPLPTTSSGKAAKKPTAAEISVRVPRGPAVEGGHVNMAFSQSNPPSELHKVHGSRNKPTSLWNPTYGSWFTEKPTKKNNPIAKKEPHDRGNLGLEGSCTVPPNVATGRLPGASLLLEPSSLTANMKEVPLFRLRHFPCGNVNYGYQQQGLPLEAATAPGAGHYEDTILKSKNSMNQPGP
T2 sequence (P08581 956-1390 limits assumed): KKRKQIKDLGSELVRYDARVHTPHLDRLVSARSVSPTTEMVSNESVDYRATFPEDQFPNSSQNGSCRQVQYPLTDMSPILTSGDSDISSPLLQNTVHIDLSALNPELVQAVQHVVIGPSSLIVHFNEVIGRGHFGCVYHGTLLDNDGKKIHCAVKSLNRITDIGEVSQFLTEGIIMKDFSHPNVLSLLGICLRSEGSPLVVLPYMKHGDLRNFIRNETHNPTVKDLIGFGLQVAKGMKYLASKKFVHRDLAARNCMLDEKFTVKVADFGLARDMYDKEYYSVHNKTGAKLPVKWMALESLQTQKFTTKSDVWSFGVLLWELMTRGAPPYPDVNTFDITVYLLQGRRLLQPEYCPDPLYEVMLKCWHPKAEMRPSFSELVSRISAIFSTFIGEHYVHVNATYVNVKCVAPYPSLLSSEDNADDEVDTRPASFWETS

SMILES: CNC(=O)c1ccccc1Nc1nc(Nc2ccc3c(c2)N(C)CCN(C(=O)n2ccnc2)C3)ncc1Cl [Example 486, 2-{5-Chloro-2-[4-(imidazole-1-carbonyl)-1-methyl-2,3,4,5-tetrahydro-1H-benzo[e][1,4]diazepin-8-ylamino]-pyrimidin-4-ylamino}-N-methyl-benzamide]
IC50 [1, 3]: < 100 nM
IC50 [2, 4]: < 100 nM

SMILES: CCN1CCN(CC)c2cc(Nc3nc(Nc4cc5c(cc4OC)CCN(CC(=O)N(C)C)CC5)ncc3Cl)ccc2C1=O [Example 724, 2-{7-[5-Chloro-4-(1,4-diethyl-5-oxo-2,3,4,5-tetrahydro-1H-benzo[e][1,4]diazepin-8-ylamino)-pyrimidin-2-ylamino]-8-methoxy-1,2,3,4-tetrahydro-benzo[d]azepin-3-yl}-N,N-dimethyl-acetamide]
IC50 [1, 5]: < 100 nM
IC50 [2, 6]: > 10000 nM

SMILES: Cn1cnc2c(Nc3nc(Nc4ccc5c(c4)C(C)(C)CCC(=O)N5)ncc3Cl)cccc21 [Example 1005, 7-[5-Chloro-4-(1-methyl-1H-benzoimidazol-4-ylamino)-pyrimidin-2-ylamino]-5,5-dimethyl-1,3,4,5-tetrahydro-benzo[b]azepin-2-one]
IC50 [1, 5]: < 100 nM
IC50 [2, 6]: 100 to 1000 nM

SMILES: COCCN1CCc2cc(Nc3ncc(Cl)c(NC4C5C=CC(C5)C4C(=O)N(C)C)n3)c(OC)cc2CC1 (stereo not drawn) [Example 606, (2-exo-3-exo)-3-{5-Chloro-2-[8-methoxy-3-(2-methoxy-ethyl)-2,3,4,5-tetrahydro-1H-benzo[d]azepin-7-ylamino]-pyrimidin-4-ylamino}-bicyclo[2.2.1]hept-5-ene-2-carboxylic acid dimethylamide]
IC50 [1, 5]: < 100 nM
IC50 [2, 6]: > 10000 nM

SMILES: COc1c(Nc2ncc(Cl)c(Nc3ccccc3S(=O)(=O)N3CCCC3)n2)ccc2c1CCC(N1CCOCC1)CC2 (stereo not shown) [Example 900, 5-Chloro-N*2*-(1-methoxy-7-morpholin-4-yl-6,7,8,9-tetrahydro-5H-benzocyclohepten-2-yl)-N*4*-[2-(pyrrolidine-1-sulfonyl)-phenyl]-pyrimidine-2,4-diamine]
IC50 [1, 5]: < 100 nM
IC50 [2, 6]: 1000 to 10000 nM

SMILES: COc1cc2c(cc1Nc1ncc(Cl)c(Nc3ccc(N(C)C)cc3OC)n1)CCN(CC(=O)N(C)C)CC2 [Example 1166, 2-{7-[5-Chloro-4-(4-dimethylamino-2-methoxy-phenylamino)-pyrimidin-2-ylamino]-8-methoxy-1,2,4,5-tetrahydro-benzo[d]azepin-3-yl}-N,N-dimethyl-acetamide]
IC50 [1, 7]: < 100 nM
IC50 [2, 8]: > 10000 nM

SMILES: CNS(=O)(=O)c1ccccc1Nc1nc(Nc2ccc3c(c2)C2CC3CN(C(C)C)C2)ncc1Cl (stereo not shown) [Example 159, 2-[5-Chloro-2-(10-isopropyl-10-aza-tricyclo[6.3.1.0*2,7*]dodeca-2,4,6-trien-4-ylamino)-pyrimidin-4-ylamino]-N-methyl-benzenesulfonamide]
IC50 [1, 3]: < 100 nM
IC50 [2, 4]: 100 to 1000 nM

SMILES: Cn1ccnc1-c1ccccc1Nc1nc(Nc2ccc3c(c2)CCC(N2CCOCC2)CC3)ncc1Cl (stereo not shown) [Example 218, 5-Chloro-N*4*-[2-(1-methyl-1H-imidazol-2-yl)-phenyl]-N*2*-(7-morpholin-4-yl-6,7,8,9-tetrahydro-5H-benzocyclohepten-2-yl)-pyrimidine-2,4-diamine]
IC50 [1, 3]: < 100 nM
IC50 [2, 4]: 100 to 1000 nM

SMILES: CNS(=O)(=O)c1ccccc1Nc1nc(Nc2ccc3c(c2)C2CCC3CN(C(C)=O)C2)ncc1Cl (stereo not shown) [Example 289, 2-[2-(10-Acetyl-10-aza-tricyclo[6.3.2.0*2,7*]trideca-2,4,6-trien-4-ylamino)-5-chloro-pyrimidin-4-ylamino]-N-methyl-benzenesulfonamide]
IC50 [1, 3]: < 100 nM
IC50 [2, 4]: 100 to 1000 nM

SMILES: CC1(C)CCC(=O)Nc2ccc(Nc3ncc(Cl)c(Nc4ccc(N5CCOCC5)cc4-n4cccn4)n3)cc21 [Example 627, 7-[5-Chloro-4-(4-morpholin-4-yl-2-pyrazol-1-yl-phenylamino)-pyrimidin-2-ylamino]-5,5-dimethyl-1,3,4,5-tetrahydro-benzo[b]azepin-2-one]
IC50 [1, 5]: < 100 nM
IC50 [2, 6]: 1000 to 10000 nM

SMILES: COc1c(Nc2ncc(Cl)c(Nc3ccccc3S(=O)(=O)C(C)C)n2)ccc2c1CCC(N1CCOCC1)CC2 (stereo not shown) [Example 883, 5-Chloro-N*2*-(1-methoxy-7-morpholin-4-yl-6,7,8,9-tetrahydro-5H-benzocyclohepten-2-yl)-N*4*-[2-(propane-2-sulfonyl)-phenyl]-pyrimidine-2,4-diamine]
IC50 [1, 5]: < 100 nM
IC50 [2, 6]: 1000 to 10000 nM

SMILES: COCCN1CCc2ccc(OC)c(Nc3ncc(Cl)c(N[C@H]4[C@@H](C(N)=O)[C@@H]5C=C[C@H]4C5)n3)c2CC1 (relative stereo) [Example 245, (2-exo,3-exo)-3-{5-Chloro-2-[7-methoxy-3-(2-methoxy-ethyl)-2,3,4,5-tetrahydro-1H-benzo[d]azepin-6-ylamino]-pyrimidin-4-ylamino}-bicyclo[2.2.1]hept-5-ene-2-carboxylic acid amide]
IC50 [1, 3]: 1000 to 10000 nM
IC50 [2, 4]: > 10000 nM

SMILES: Cc1cccnc1-c1ccccc1Nc1nc(Nc2ccc3c(c2)C(C)(C)CCC(=O)N3)ncc1Cl [Example 971, 7-{5-Chloro-4-[2-(3-methyl-pyridin-2-yl)-phenylamino]-pyrimidin-2-ylamino}-5,5-dimethyl-1,3,4,5-tetrahydro-benzo[b]azepin-2-one]
IC50 [1, 5]: < 100 nM
IC50 [2, 6]: 1000 to 10000 nM

Next, values leading:

IC50 [1, 7]: < 100 nM
IC50 [2, 8]: 100 to 1000 nM
SMILES: C#CCN(C)C(=O)c1ccccc1Nc1nc(Nc2ccc3c(c2)CCN(CCOC)CC3)ncc1Cl [Example 1389, {5-Chloro-2-[3-(2-methoxy-ethyl)-2,3,4,5-tetrahydro-1H-benzo[d]azepin-7-ylamino]-pyrimidin-4-ylamino}-N-methyl-N-prop-2-ynyl-benzamide]

IC50 [1, 9]: < 100 nM
IC50 [2, 10]: 1000 to 10000 nM
SMILES: COc1cc(N2CCOCC2)ccc1Nc1nc(Nc2ccc3c(c2)C(C)(C)CCC(=O)N3C)ncc1Cl [Example 1573, 7-[5-Chloro-4-(2-methoxy-4-morpholin-4-yl-phenylamino)-pyrimidin-2-ylamino]-1,5,5-trimethyl-1,3,4,5-tetrahydro-benzo[b]azepin-2-one]

IC50 [1, 7]: < 100 nM
IC50 [2, 8]: > 10000 nM
SMILES: CNc1nc(N2CCOCC2)ccc1Nc1nc(Nc2cc3c(cc2OC)CCN(CC(=O)N(C)C)CC3)ncc1Cl [Example 1209, 2-{7-[5-Chloro-4-(2-methylamino-6-morpholin-4-yl-pyridin-3-ylamino)-pyrimidin-2-ylamino]-8-methoxy-1,2,4,5-tetrahydro-benzo[d]azepin-3-yl}-N,N-dimethyl-acetamide]

IC50 [1, 7]: 100 to 1000 nM
IC50 [2, 8]: 100 to 1000 nM
SMILES: CNC(=O)c1sccc1Nc1nc(Nc2ccc3c(c2)OCCCN3C(=O)OC(C)C)ncc1Cl [Example 1435, 3-[5-Chloro-4-(2-methylcarbamoyl-thiophen-3-ylamino)-pyrimidin-2-ylamino]-7,8-dihydro-6H-5-oxa-9-aza-benzocycloheptene-9-carboxylic acid isopropyl ester]

IC50 [1, 9]: < 100 nM
IC50 [2, 10]: 100 to 1000 nM
SMILES: COCCN1C(=O)CCC(C)(C)c2ccc(Nc3ncc(Cl)c(N[C@H]4[C@@H](C(N)=O)[C@@H]5C=C[C@H]4C5)n3)cc21 [Example 1583, (1S,2S,3R,4R)-3-{5-Chloro-2-[1-(2-methoxy-ethyl)-5,5-dimethyl-2-oxo-2,3,4,5-tetrahydro-1H-benzo[b]azepin-8-ylamino]-pyrimidin-4-ylamino}-bicyclo[2.2.1]hept-5-ene-2-carboxylic acid amide]

IC50 [1, 9]: 100 to 1000 nM
IC50 [2, 10]: 100 to 1000 nM
SMILES: CNC(=O)c1cccc(F)c1Nc1nc(Nc2ccc3c(c2)N(C(C)C)CCCC3(C)C)ncc1Cl [Example 1626, 2-[5-Chloro-2-(1-isopropyl-5,5-dimethyl-2,3,4,5-tetrahydro-1H-benzo[b]azepin-8-ylamino)-pyrimidin-4-ylamino]-3-fluoro-N-methyl-benzamide]

IC50 [1, 7]: 1000 to 10000 nM
IC50 [2, 8]: 1000 to 10000 nM
SMILES: O=C1CCCc2ccc(Nc3ncc(Cl)c(Nc4c(F)cc(F)cc4N4CCOCC4)n3)cc2N1 [Example 1286, 8-[5-Chloro-4-(2,4-difluoro-6-morpholin-4-yl-phenylamino)-pyrimidin-2-ylamino]-1,3,4,5-tetrahydro-1-benzazepin-2-one]

IC50 [1, 7]: < 100 nM
IC50 [2, 8]: < 100 nM
SMILES: CNC(=O)c1ccccc1Nc1nc(Nc2ccc3c(c2)CNC(=O)CCN3C(=O)C(F)(F)F)ncc1Cl [Example 1301, 2-{5-Chloro-2-[4-oxo-1-(2,2,2-trifluoro-acetyl)-1,2,3,4,5,6-hexahydro-benzo[b][1,5]diazocin-8-ylamino]-pyrimidin-4-ylamino}-N-methyl-benzamide]

IC50 [1, 9]: 1000 to 10000 nM
IC50 [2, 10]: 1000 to 10000 nM
SMILES: Cc1noc(-c2ccccc2Nc2nc(Nc3ccc4c(c3)CCOC(=O)N4C)ncc2Cl)n1 [Example 1784, 2-{5-Chloro-4-[2-(3-methyl-[1,2,4]oxadiazol-5-yl)-phenylamino]-pyrimidin-2-ylamino}-5-methyl-8,9-dihydro-5H-7-oxa-5-aza-benzocyclohepten-6-one]

IC50 [1, 9]: < 100 nM
IC50 [2, 10]: < 100 nM
SMILES: CCN1CCCOc2cc(Nc3ncc(Cl)c(Nc4c(F)cccc4C(=O)NC)n3)c(F)cc21 [Example 1691, 2-[5-Chloro-2-(9-ethyl-2-fluoro-6,7,8,9-tetrahydro-5-oxa-9-aza-benzocyclohepten-3-ylamino)-pyrimidin-4-ylamino]-3-fluoro-N-methyl-benzamide]
